Entries after “also recorded” stand apart in the source; their conditions may differ.
Legend:
[1] = target: Amaranthus palmeri GS2.2 wild‐type (WT); experiment: GS enzyme inhibition assay, GS2.2 wild-type; type: biochemical; conditions: GS2.2 WT
Description: (§1) GS activity was determined spectrophotometrically following the Sigma‐Aldrich enzymatic assay protocol. The reaction couples the ATP‐dependent conversion of L‐glutamate and ammonium to L‐glutamine with pyruvate kinase (PK) and L‐lactate dehydrogenase (LDH), such that oxidation of β‐NADH to β‐NAD^+ can be monitored at 340 nm. Recombinant GS from A. palmeri was expressed in E. coli, purified by affinity chromatography, and quantified by the Bradford method using bovine serum albumin as standard. […] Reaction mixtures were equilibrated to 37°C and initiated by the addition of enzyme, and the decrease in absorbance at 340 nm was recorded for 5–10 min; only the linear portion of the curve was used for activity calculations. […] Activity was calculated using an extinction coefficient for NADH of 6.22 mM^−1 cm^−1 and expressed as units per mg protein, where one unit corresponds to the formation of 1 μmol of L‐glutamine in […] at pH 7.1 and 37 °C. […] Percent inhibition was calculated relative to untreated (positive) and no‐enzyme (negative) controls. […] Resistance factors were calculated by dividing the IC₅₀ of each mutant variant by that of wild‐type GS.

[2] = tested on: Amaranthus palmeri GS2.2 G255D; experiment: GS enzyme inhibition assay, GS2.2 G255D; type: biochemical; conditions: full range of GFA concentrations tested (10^−8 M to 10^−2 M), listed as GFA
Description: as §1

[3] = tested on: Arabidopsis thaliana plants expressing Arabidopsis GS2.2 G254D; experiment: Postemergence GFA spray on transgenic Arabidopsis expressing GS2.2 G254D; type: in vivo; conditions: transgenic Arabidopsis expressing Arabidopsis GS2.2 G254D; 100, 500 and 1000 g ha^−1 postemergence; listed as GFA
Description: Mutant GS variants G2.2 G255D from A. palmeri and G254D from Arabidopsis were cloned into the RTP6557 transformation vector, which was subsequently introduced into Agrobacterium tumefaciens strain C58C1pMP90. The construct also carried an acetolactate synthase (ALS) herbicide‐resistance gene as a selectable marker, ensuring that Arabidopsis seedlings tested for resistance to GFA herbicide expressed the transgene.
Arabidopsis plants carrying immature floral buds were transformed by the floral‐dip method, immersing inflorescences for 10 s in the bacterial suspension supplemented with Silwet‐L77 at 0.05% v/v. After dipping, plants were maintained overnight under high humidity and low light, then transferred to long‐day conditions until maturity. Once siliques had yellowed, seeds were harvested into paper bags. T₁ seeds were collected, placed into Falcon tubes, and stored at 4 °C.
After ≥14 d of cold storage, T₁ seeds were sown and stratified as previously described. Transgenic plants were confirmed by PCR detection of the AHAS resistance marker gene. […]
Herbicide treatments were applied at the 10‐leaf stage using a spray chamber calibrated to deliver 375 L ha^−1 of spray solution. […] Herbicide efficacy was visually evaluated 7 d after application.

[4] = tested on: Amaranthus palmeri cytosolic GS1.1 E192Q; experiment: GS enzyme inhibition assay, GS1.1 E192Q; type: biochemical
Description: as §1

[5] = tested on: Amaranthus palmeri cytosolic GS1.1 H249N; experiment: GS enzyme inhibition assay, GS1.1 H249N; type: biochemical
Description: as §1

[6] = tested on: Amaranthus palmeri cytosolic GS1.1 R291G; experiment: GS enzyme inhibition assay, GS1.1 R291G; type: biochemical
Description: as §1

[7] = tested on: Amaranthus palmeri cytosolic GS1.1 R291H; experiment: GS enzyme inhibition assay, GS1.1 R291H; type: biochemical
Description: as §1

[8] = tested on: Amaranthus palmeri cytosolic GS1.1 R311P; experiment: GS enzyme inhibition assay, GS1.1 R311P; type: biochemical
Description: as §1

[9] = tested on: Amaranthus palmeri cytosolic GS1.1 D56S; experiment: GS enzyme inhibition assay, GS1.1 D56S; type: biochemical
Description: as §1

[10] = tested on: Amaranthus palmeri cytosolic GS1.1 S58M; experiment: GS enzyme inhibition assay, GS1.1 S58M; type: biochemical
Description: as §1

[11] = tested on: Amaranthus palmeri cytosolic GS1.1 T60Q; experiment: GS enzyme inhibition assay, GS1.1 T60Q; type: biochemical
Description: as §1

[12] = tested on: Amaranthus palmeri cytosolic GS1.1 Y158A; experiment: GS enzyme inhibition assay, GS1.1 Y158A; type: biochemical
Description: as §1

[13] = tested on: Amaranthus palmeri cytosolic GS1.1 Y158T; experiment: GS enzyme inhibition assay, GS1.1 Y158T; type: biochemical
Description: as §1

[14] = tested on: Amaranthus palmeri cytosolic GS1.1 V161S; experiment: GS enzyme inhibition assay, GS1.1 V161S; type: biochemical
Description: as §1

[15] = tested on: Amaranthus palmeri cytosolic GS1.1 S174E; experiment: GS enzyme inhibition assay, GS1.1 S174E; type: biochemical
Description: as §1

[16] = target: Amaranthus palmeri cytosolic GS1.1 G245P; experiment: GS enzyme inhibition assay, GS1.1 G245P; type: biochemical; conditions: read-out: Glufosinate‐ammonium IC50
Description: as §1

[17] = tested on: Amaranthus palmeri cytosolic GS1.1 E297Q; experiment: GS enzyme inhibition assay, GS1.1 E297Q; type: biochemical
Description: as §1

[18] = tested on: Amaranthus palmeri cytosolic GS1.1 E297S; experiment: GS enzyme inhibition assay, GS1.1 E297S; type: biochemical; conditions: IC50 variant / IC50 WT
Description: as §1

[19] = tested on: Amaranthus palmeri cytosolic GS1.1 A309Y; experiment: GS enzyme inhibition assay, GS1.1 A309Y; type: biochemical
Description: as §1

[20] = tested on: Amaranthus palmeri cytosolic GS1.1 R316A; experiment: GS enzyme inhibition assay, GS1.1 R316A; type: biochemical
Description: as §1

[21] = read-out: Glufosinate‐ammonium IC50

CP(=O)(O)CCC(N)C(=O)O (centres unmarked) [Glufosinate‐ammonium] was tested, and the IC50 [1] was 110 µM, the “inhibition by GFA” value [2] was “completely insensitive; also recorded: no measurable inhibition; also recorded: no detectable inhibition” and the “tolerance to GFA (visual injury)” value [3] was “failed to confer tolerance; also recorded: sensitive phenotype”. The “Glufosinate‐ammonium % Inhibition at saturation 10 000 μM” value (“Glufosinate‐ammonium % Inhibition” for short) ([4]; 10 000 μM) was 0%, the IC50 [4, 21] was > 10000 µM and the “Glufosinate‐ammonium % Inhibition” value ([5]; 10 000 μM) was 17%. The IC50 [5, 21] was > 10000 µM, the “Glufosinate‐ammonium % Inhibition” value ([6]; 10 000 μM) was 0% and the IC50 [6, 21] was > 10000 µM. The “Glufosinate‐ammonium % Inhibition” value ([7]; 10 000 μM) was 0%, the IC50 [7, 21] was > 10000 µM and the “Glufosinate‐ammonium % Inhibition” value ([8]; 10 000 μM) was 0%. For the same compound, the IC50 [8, 21] was > 10000 µM, the “Resistance index (RI)” value ([9]; IC50 variant / IC50 WT) was 2.6 and the IC50 [9, 21] was 56 µM. The “Resistance index (RI)” value ([10]; IC50 variant / IC50 WT) was 4.3, the IC50 [10, 21] was 94 µM and the “Resistance index (RI)” value ([11]; IC50 variant / IC50 WT) was 16.9. The IC50 [11, 21] was 366 µM, the “Resistance index (RI)” value ([12]; IC50 variant / IC50 WT) was 64.6 and the IC50 [12, 21] was 1400 µM. The “Resistance index (RI)” value ([13]; IC50 variant / IC50 WT) was 3.5, the IC50 [13, 21] was 76 µM and the “Resistance index (RI)” value ([14]; IC50 variant / IC50 WT) was 1.8. The IC50 [14, 21] was 39 µM, the “Resistance index (RI)” value ([15]; IC50 variant / IC50 WT) was 0.0 and the IC50 [15, 21] was 1 µM. The IC50 [16] was 247 µM, the “Resistance index (RI)” value ([17]; IC50 variant / IC50 WT) was 0.0 and the IC50 [17, 21] was 0.6 µM. For the same compound, the “Resistance index (RI)” value [18] was 0.0, the “Resistance index (RI)” value ([19]; IC50 variant / IC50 WT) was 799.7 and the IC50 ([19]; read-out: Glufosinate‐ammonium IC50 (converted)) was 17400 µM. For the same compound, the “Resistance index (RI)” value ([20]; IC50 variant / IC50 WT) was 14.4 and the IC50 [20, 21] was 313 µM.
